± gives the standard deviation of the averaged measurements.
The molecules below were run on NanoLuc luciferase (NLuc) (assay: normalised percent inhibition of luminescence (vs positive and negative controls); higher = stronger inhibition). Settings: metal salt concentration 0.0001 mM; 100 mM HEPES buffer.
Method: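 Concentration-response (>=11 concentrations) of metal salts on purified FLuc, NLuc or RLuc luminescence in screening (SC) or 100 mM HEPES (H) buffer; salt pre-incubated with enzyme 10 min at RT, read 10 min after substrate. Normalised percent inhibition vs plate positive (PTC-124, isradipine, BTS) and DMSO negative controls; triplicate wells.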

Compound	normalised percent inhibition
O=[N+]([O-])[O-].O=[N+]([O-])[O-].[Cd+2] [cadmium nitrate]	-0.809 ± 1.5%
[Cl][Sn][Cl] [tin(II) chloride]	-1.04 ± 6.1%
O=S(=O)([O-])[O-].[Fe+2] [iron(II) sulfate]	-2.4 ± 0.95%
O.O.O.O.O.O.O.O=S(=O)([O-])[O-].[Mg+2] [magnesium sulfate]	6.62 ± 5.2%
O=[N+]([O-])[O-].[Ag+] [silver nitrate]	1.65 ± 1.5%
CC#N.CC#N.CC#N.CC#N.F[B-](F)(F)F.[Cu+] [tetrakis(acetonitrile)copper(I) tetrafluoroborate]	2.08 ± 2.5%

Same assay, conditions: metal salt concentration 0.00025 mM; 100 mM HEPES buffer

Compound	normalised percent inhibition
O=[N+]([O-])[O-].O=[N+]([O-])[O-].[Cd+2] [cadmium nitrate]	-0.623 ± 3.6%
[Cl][Sn][Cl] [tin(II) chloride]	-2.95 ± 2.7%
O=S(=O)([O-])[O-].[Fe+2] [iron(II) sulfate]	0.242 ± 1.3%
O.O.O.O.O.O.O.O=S(=O)([O-])[O-].[Mg+2] [magnesium sulfate]	1.39 ± 2.5%
O=[N+]([O-])[O-].[Ag+] [silver nitrate]	-1.44 ± 2.1%
CC#N.CC#N.CC#N.CC#N.F[B-](F)(F)F.[Cu+] [tetrakis(acetonitrile)copper(I) tetrafluoroborate]	-0.342 ± 1.6%

Same assay, conditions: metal salt concentration 0.0005 mM; 100 mM HEPES buffer

Compound	normalised percent inhibition
O=[N+]([O-])[O-].O=[N+]([O-])[O-].[Cd+2] [cadmium nitrate]	-3.63 ± 3.5%
[Cl][Sn][Cl] [tin(II) chloride]	-1.03 ± 1.3%
O=S(=O)([O-])[O-].[Fe+2] [iron(II) sulfate]	3.64 ± 1.7%
O.O.O.O.O.O.O.O=S(=O)([O-])[O-].[Mg+2] [magnesium sulfate]	-0.0243 ± 2.5%
O=[N+]([O-])[O-].[Ag+] [silver nitrate]	-1.42 ± 4.4%
CC#N.CC#N.CC#N.CC#N.F[B-](F)(F)F.[Cu+] [tetrakis(acetonitrile)copper(I) tetrafluoroborate]	3.53 ± 1.5%

Same assay, conditions: metal salt concentration 0.001 mM; 100 mM HEPES buffer

Compound	normalised percent inhibition
O=[N+]([O-])[O-].O=[N+]([O-])[O-].[Cd+2] [cadmium nitrate]	-0.485 ± 1.9%
[Cl][Sn][Cl] [tin(II) chloride]	-2.16 ± 1.9%
O=S(=O)([O-])[O-].[Fe+2] [iron(II) sulfate]	0.251 ± 4.1%
O.O.O.O.O.O.O.O=S(=O)([O-])[O-].[Mg+2] [magnesium sulfate]	-0.202 ± 2.1%
O=[N+]([O-])[O-].[Ag+] [silver nitrate]	2.97 ± 6.6%
CC#N.CC#N.CC#N.CC#N.F[B-](F)(F)F.[Cu+] [tetrakis(acetonitrile)copper(I) tetrafluoroborate]	4.37 ± 2.7%

Same assay, conditions: metal salt concentration 0.002 mM; screening conditions buffer

Compound	normalised percent inhibition
O=[N+]([O-])[O-].O=[N+]([O-])[O-].[Cd+2] [cadmium nitrate]	4.83 ± 4.2%
[Cl][Sn][Cl] [tin(II) chloride]	1.6 ± 4.3%
O=S(=O)([O-])[O-].[Fe+2] [iron(II) sulfate]	-6.27 ± 4.7%
O=[N+]([O-])[O-].O=[N+]([O-])[O-].[Pb+2] [lead(II) nitrate]	-1.02 ± 11%
O=[N+]([O-])[O-].O=[N+]([O-])[O-].[Zn+2] [zinc nitrate]	0.728 ± 3.3%
O=[N+]([O-])[O-].[Ag+] [silver nitrate]	20.8 ± 3.6%
CC#N.CC#N.CC#N.CC#N.F[B-](F)(F)F.[Cu+] [tetrakis(acetonitrile)copper(I) tetrafluoroborate]	0.453 ± 3.1%

Same assay, conditions: metal salt concentration 0.005 mM; screening conditions buffer

Compound	normalised percent inhibition
O=[N+]([O-])[O-].O=[N+]([O-])[O-].[Cd+2] [cadmium nitrate]	6.73 ± 6%
[Cl][Sn][Cl] [tin(II) chloride]	4.64 ± 7.8%
O=S(=O)([O-])[O-].[Fe+2] [iron(II) sulfate]	5.45 ± 5.8%
O=[N+]([O-])[O-].O=[N+]([O-])[O-].[Pb+2] [lead(II) nitrate]	-3.52 ± 6.5%
O=[N+]([O-])[O-].O=[N+]([O-])[O-].[Zn+2] [zinc nitrate]	-0.897 ± 5.4%
O=[N+]([O-])[O-].[Ag+] [silver nitrate]	80.1 ± 3.5%
CC#N.CC#N.CC#N.CC#N.F[B-](F)(F)F.[Cu+] [tetrakis(acetonitrile)copper(I) tetrafluoroborate]	0.553 ± 5.7%

Same assay, conditions: metal salt concentration 0.01 mM; screening conditions buffer

Compound	normalised percent inhibition
O=[N+]([O-])[O-].O=[N+]([O-])[O-].[Cd+2] [cadmium nitrate]	0.612 ± 1.6%
[Cl][Sn][Cl] [tin(II) chloride]	3.42 ± 6.3%
O=S(=O)([O-])[O-].[Fe+2] [iron(II) sulfate]	3.08 ± 4.9%
O=[N+]([O-])[O-].O=[N+]([O-])[O-].[Pb+2] [lead(II) nitrate]	-2.27 ± 14%
O=[N+]([O-])[O-].O=[N+]([O-])[O-].[Zn+2] [zinc nitrate]	10.7 ± 4.8%
O=[N+]([O-])[O-].[Ag+] [silver nitrate]	88 ± 46%
CC#N.CC#N.CC#N.CC#N.F[B-](F)(F)F.[Cu+] [tetrakis(acetonitrile)copper(I) tetrafluoroborate]	1.88 ± 5.3%

Same assay, conditions: metal salt concentration 0.02 mM; screening conditions buffer

Compound	normalised percent inhibition
O=[N+]([O-])[O-].O=[N+]([O-])[O-].[Cd+2] [cadmium nitrate]	-0.781 ± 5.1%
[Cl][Sn][Cl] [tin(II) chloride]	-0.105 ± 7.6%
O=S(=O)([O-])[O-].[Fe+2] [iron(II) sulfate]	7.25 ± 4.3%
O=[N+]([O-])[O-].O=[N+]([O-])[O-].[Pb+2] [lead(II) nitrate]	-3.22 ± 1.7%
O=[N+]([O-])[O-].O=[N+]([O-])[O-].[Zn+2] [zinc nitrate]	7.25 ± 7.2%
O=[N+]([O-])[O-].[Ag+] [silver nitrate]	107 ± 28%
CC#N.CC#N.CC#N.CC#N.F[B-](F)(F)F.[Cu+] [tetrakis(acetonitrile)copper(I) tetrafluoroborate]	9.53 ± 10%

Same assay, conditions: metal salt concentration 0.025 mM; 100 mM HEPES buffer

Compound	normalised percent inhibition
O=[N+]([O-])[O-].O=[N+]([O-])[O-].[Cd+2] [cadmium nitrate]	-1.09 ± 2.9%
[Cl][Sn][Cl] [tin(II) chloride]	-3.24 ± 3.1%
O=S(=O)([O-])[O-].[Fe+2] [iron(II) sulfate]	3.97 ± 5%
O.O.O.O.O.O.O.O=S(=O)([O-])[O-].[Mg+2] [magnesium sulfate]	-2.3 ± 2.2%
O=[N+]([O-])[O-].[Ag+] [silver nitrate]	99.59 ± 0.3%
CC#N.CC#N.CC#N.CC#N.F[B-](F)(F)F.[Cu+] [tetrakis(acetonitrile)copper(I) tetrafluoroborate]	5.84 ± 3.1%

Same assay, conditions: metal salt concentration 0.05 mM; 100 mM HEPES buffer

Compound	normalised percent inhibition
O=[N+]([O-])[O-].O=[N+]([O-])[O-].[Cd+2] [cadmium nitrate]	4.79 ± 3.8%
[Cl][Sn][Cl] [tin(II) chloride]	6.37 ± 5.1%
O=S(=O)([O-])[O-].[Fe+2] [iron(II) sulfate]	6.24 ± 1.8%
O.O.O.O.O.O.O.O=S(=O)([O-])[O-].[Mg+2] [magnesium sulfate]	0.502 ± 4.4%
O=[N+]([O-])[O-].[Ag+] [silver nitrate]	51.4 ± 54%
CC#N.CC#N.CC#N.CC#N.F[B-](F)(F)F.[Cu+] [tetrakis(acetonitrile)copper(I) tetrafluoroborate]	40.1 ± 16%

Same assay, conditions: metal salt concentration 0.05 mM; screening conditions buffer

Compound	normalised percent inhibition
O=[N+]([O-])[O-].O=[N+]([O-])[O-].[Cd+2] [cadmium nitrate]	17.7 ± 10%
[Cl][Sn][Cl] [tin(II) chloride]	-1.81 ± 0.79%
O=S(=O)([O-])[O-].[Fe+2] [iron(II) sulfate]	11.5 ± 2.6%
O=[N+]([O-])[O-].O=[N+]([O-])[O-].[Pb+2] [lead(II) nitrate]	-4.15 ± 10%
O=[N+]([O-])[O-].O=[N+]([O-])[O-].[Zn+2] [zinc nitrate]	35.8 ± 7%
O=[N+]([O-])[O-].[Ag+] [silver nitrate]	118 ± 17%
CC#N.CC#N.CC#N.CC#N.F[B-](F)(F)F.[Cu+] [tetrakis(acetonitrile)copper(I) tetrafluoroborate]	91.9 ± 19%

Same assay, conditions: metal salt concentration 0.1 mM; 100 mM HEPES buffer

Compound	normalised percent inhibition
O=[N+]([O-])[O-].O=[N+]([O-])[O-].[Cd+2] [cadmium nitrate]	13 ± 6.7%
[Cl][Sn][Cl] [tin(II) chloride]	-5.15 ± 2.1%
O=S(=O)([O-])[O-].[Fe+2] [iron(II) sulfate]	19.9 ± 2.1%
O.O.O.O.O.O.O.O=S(=O)([O-])[O-].[Mg+2] [magnesium sulfate]	1.8 ± 6%
O=[N+]([O-])[O-].[Ag+] [silver nitrate]	100.8 ± 0.22%
CC#N.CC#N.CC#N.CC#N.F[B-](F)(F)F.[Cu+] [tetrakis(acetonitrile)copper(I) tetrafluoroborate]	92.9 ± 4.2%

Same assay, conditions: metal salt concentration 0.1 mM; screening conditions buffer

Compound	normalised percent inhibition
O=[N+]([O-])[O-].O=[N+]([O-])[O-].[Cd+2] [cadmium nitrate]	7.22 ± 2.6%
[Cl][Sn][Cl] [tin(II) chloride]	1.62 ± 2.5%
O=S(=O)([O-])[O-].[Fe+2] [iron(II) sulfate]	37.5 ± 3%
O=[N+]([O-])[O-].O=[N+]([O-])[O-].[Pb+2] [lead(II) nitrate]	-7.45 ± 3.5%
O=[N+]([O-])[O-].O=[N+]([O-])[O-].[Zn+2] [zinc nitrate]	66 ± 15%
O=[N+]([O-])[O-].[Ag+] [silver nitrate]	119 ± 17%
CC#N.CC#N.CC#N.CC#N.F[B-](F)(F)F.[Cu+] [tetrakis(acetonitrile)copper(I) tetrafluoroborate]	158 ± 2.2%

Same assay, conditions: metal salt concentration 0.2 mM; screening conditions buffer

Compound	normalised percent inhibition
O=[N+]([O-])[O-].O=[N+]([O-])[O-].[Cd+2] [cadmium nitrate]	20.6 ± 6.8%
[Cl][Sn][Cl] [tin(II) chloride]	6.52 ± 2.1%
O=S(=O)([O-])[O-].[Fe+2] [iron(II) sulfate]	49.5 ± 7.2%
O=[N+]([O-])[O-].O=[N+]([O-])[O-].[Pb+2] [lead(II) nitrate]	0.428 ± 2.1%
O=[N+]([O-])[O-].O=[N+]([O-])[O-].[Zn+2] [zinc nitrate]	78.9 ± 2.5%
O=[N+]([O-])[O-].[Ag+] [silver nitrate]	133.6 ± 0.46%
CC#N.CC#N.CC#N.CC#N.F[B-](F)(F)F.[Cu+] [tetrakis(acetonitrile)copper(I) tetrafluoroborate]	158.7 ± 0.69%

Same assay, conditions: metal salt concentration 0.5 mM; 100 mM HEPES buffer

Compound	normalised percent inhibition
O=[N+]([O-])[O-].O=[N+]([O-])[O-].[Cd+2] [cadmium nitrate]	18.6 ± 2.3%
[Cl][Sn][Cl] [tin(II) chloride]	-1.5 ± 2.9%
O=S(=O)([O-])[O-].[Fe+2] [iron(II) sulfate]	67.9 ± 3.6%
O.O.O.O.O.O.O.O=S(=O)([O-])[O-].[Mg+2] [magnesium sulfate]	1.22 ± 2%
O=[N+]([O-])[O-].[Ag+] [silver nitrate]	101.7 ± 0.27%
CC#N.CC#N.CC#N.CC#N.F[B-](F)(F)F.[Cu+] [tetrakis(acetonitrile)copper(I) tetrafluoroborate]	101.8 ± 0.16%

Same assay, conditions: metal salt concentration 0.5 mM; screening conditions buffer

Compound	normalised percent inhibition
O=[N+]([O-])[O-].O=[N+]([O-])[O-].[Cd+2] [cadmium nitrate]	30.7 ± 4.9%
[Cl][Sn][Cl] [tin(II) chloride]	8.42 ± 5.9%
O=S(=O)([O-])[O-].[Fe+2] [iron(II) sulfate]	81.1 ± 2%
O=[N+]([O-])[O-].O=[N+]([O-])[O-].[Pb+2] [lead(II) nitrate]	15.7 ± 8.1%
O=[N+]([O-])[O-].O=[N+]([O-])[O-].[Zn+2] [zinc nitrate]	77 ± 14%
O=[N+]([O-])[O-].[Ag+] [silver nitrate]	119 ± 16%
CC#N.CC#N.CC#N.CC#N.F[B-](F)(F)F.[Cu+] [tetrakis(acetonitrile)copper(I) tetrafluoroborate]	160 ± 0.71%

Same assay, conditions: metal salt concentration 1 mM; 100 mM HEPES buffer

Compound	normalised percent inhibition
O=[N+]([O-])[O-].O=[N+]([O-])[O-].[Cd+2] [cadmium nitrate]	24.8 ± 3%
[Cl][Sn][Cl] [tin(II) chloride]	-2.37 ± 3.8%
O=S(=O)([O-])[O-].[Fe+2] [iron(II) sulfate]	87.7 ± 2.2%
O.O.O.O.O.O.O.O=S(=O)([O-])[O-].[Mg+2] [magnesium sulfate]	-4.91 ± 2.9%
O=[N+]([O-])[O-].[Ag+] [silver nitrate]	101.7 ± 0.68%
CC#N.CC#N.CC#N.CC#N.F[B-](F)(F)F.[Cu+] [tetrakis(acetonitrile)copper(I) tetrafluoroborate]	101.8 ± 0.24%

Same assay, conditions: metal salt concentration 1 mM; screening conditions buffer

Compound	normalised percent inhibition
O=[N+]([O-])[O-].O=[N+]([O-])[O-].[Cd+2] [cadmium nitrate]	56.2 ± 9.1%
[Cl][Sn][Cl] [tin(II) chloride]	20.2 ± 2.5%

Reference: the supplement of paper PMC11628255, “Interference of metal ions on the bioluminescent signal of firefly, Renilla, and NanoLuc luciferases in high-throughput screening assays” (Frontiers in Chemistry, 2024)
